Numbered stars: 1 amine (or outer) side, 2 acyl side, 3 side chain; on linkers, the order of the positions; unused ones are H or OH. Bridge positions count the residues as written; N and C are the ends. Square brackets hold non-standard residues; d marks the D form. Peptide text beside a SMILES is read from it. Abu(3S-NH2) = C[C@H](N)[C@H](N)C(=O)O; Hpla = O=C(O)[C@@H](O)Cc1ccc(O)cc1; X1 = NCC[C@H](O[*:1])C(=O)[*:2]; Lac = C[C@H](O)C(=O)O

The target of one data set is T1, human CXCR4 (Homo sapiens, UniProt P61073).
T1 construct: expressed in transfected cells; host or cells: mouse pre-B cell line 300-19
T1 sequence (P61073 whole entry): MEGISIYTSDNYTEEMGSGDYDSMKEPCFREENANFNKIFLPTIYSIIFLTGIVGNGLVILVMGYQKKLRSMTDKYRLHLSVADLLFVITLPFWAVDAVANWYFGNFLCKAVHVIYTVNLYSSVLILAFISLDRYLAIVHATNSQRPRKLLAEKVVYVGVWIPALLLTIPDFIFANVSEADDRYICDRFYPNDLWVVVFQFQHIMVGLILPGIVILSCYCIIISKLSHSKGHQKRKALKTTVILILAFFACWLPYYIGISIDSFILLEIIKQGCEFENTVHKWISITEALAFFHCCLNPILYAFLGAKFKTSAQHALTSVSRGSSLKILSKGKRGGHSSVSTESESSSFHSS
Briefly: Ca2+-assay: CXCR4-antagonizing activity (SDF-1 induced calcium mobilization). The settings on record: mouse pre-B cell line 300-19 stably transfected with human CXCR4, read-out: IC50% [nM] ± SD, CXCR4 receptor. It counts as cell-based. The source says: 2.3. Ca^2+-Assay: CXCR4-Antagonizing Activity of the Depsipeptides
Increases in intracellular calcium were monitored using a Flexstation 384 (Molecular Devices, Sunnyvale, Calif.) to assay the depsipeptides for CXCR4 antagonism in a mouse pre-B cell line 300-19 stably transfected with human CXCR4 (E. Oberlin, A. Amara, F. Bachelerie, C. Bessia, J.-L. Virelizier, F. Arenzana-Seisdedos, O. Schwartz, J.-M. Heard, I. Clark-Lewis, D. F. Legler, M. Loetscher, M. Baggiolini, B. Moser, Nature 1996, 382, 833-835; M. Loetscher, T. Geiser, T. O'Reilly, R. Zwalen, M. Baggiolini, B. Moser, J. Biol. Chem. 1994, 269, 232-237; M. D'Apuuo, A. Rolink, M. Loetscher, J. A. Hoxie, I. Clark-Lewis, F. Melchors, M. Baggiolini, B. Moser, Eur. J. Immunol. 1997, 27, 1788-1793). The cells were batch loaded with the Calcium 4 Assay kit (Molecular Devices) in assay buffer (Hanks Balanced salt solution [HBSS], 20 mM HEPES, pH 7.4, 0.1% BSA) for 1 h at room temperature and labeled cells were dispensed into black well assays plates (Costar No. 3603). Calcium mobilization induced by stromal-derived factor-1 (SDF-1) was measured in the Flexstation 384 (excitation: 485 nm; emission: 525 nm) for 90 seconds. Antagonist activity of depsipeptides was determined by spiking the cells with compounds prior to SDF-1 addition. Dose response curves (compound concentration versus % maximum response for SDF-1) were determined for each antagonist and IC50 values were calculated by fitting the data to a four parameter logistic equation using SoftmaxPro 4.8 (Molecular Devices).

The next data set in a line: in vitro. It counts as cell-based. Here is the method:
The cytotoxicity of the depsipeptides to HELA cells (Acc57) and COS-7 cells (CRL-1651) was determined using the MTT reduction assay (T. Mossman, J. Immunol. Meth. 1983, 65, 55-63; M. V. Berridge, A. S. Tan, Arch. Biochem. Biophys. 1993, 303, 474-482). Briefly, the method was as follows: 7000 HELA cells/well and 4500 COS-7 cells/well were seeded and grown in 96-well microtiter plates for 24 h at 37° C. at 5% CO2. Thereafter, time zero (Tz) was determined by MTT reduction (see below). The supernatant of the remaining wells was discarded, and fresh medium and compounds in serial dilutions (12.5, 25 and 50 μM, triplicates) were pipetted into the wells. After incubation of the cells for 48 h at 37° C. at 5% CO2 the supernatant was discarded again and 100 μL MTT reagent (0.5 mg/mL in RPMI1640 and DMEM, respectively)/well was added. Following incubation at 37° C. for 2 h the media were aspirated and the cells were spiked (100 μL isopropanol/well). The absorbance of the solubilized formazan was measured at 595 nm (OD595peptide). For each concentration averages were calculated from triplicates. The percentage of growth was calculated as follows: (OD595peptide-OD595Tz-OD595Empty well)/(OD595Tz-OD595Empty well)×100%. The GI50 (Growth Inhibition) concentrations were calculated for each depsipeptide by using a trend line function for the concentrations (50, 25, 12.5 and 0 μM), the corresponding percentages and the value 50, (=TREND (C50:C0, %50:%0, 50).

For data set [1], the system named is human red blood cells (hRBC). It counts as cell-based. The settings on record: red cells of human, 1 h. Here is the method:
2.5. Hemolysis The depsipeptides were tested for their hemolytic activity against human red blood cells (hRBC). Fresh hRBC were washed three times with phosphate buffered saline (PBS) and centrifuged for 10 min at 2000×g. Compounds (100 μM) were incubated with 20% hRBC (v/v) for 1 h at 37° C. The final erythrocyte concentration was approximately 0.9×10^9 cells/mL. A value of 0% and 100% cell lyses, respectively, was determined by incubation of hRBC in the presence of PBS alone and 0.1% Triton X-100 in H2O, respectively. The samples were centrifuged, the supernatants were 20-fold diluted in PBS buffer and the optical densities (OD) were measured at 540 nm. The 100% lyses value (OD540H2O) gave an OD540 of approximately 1.3-1.8. Percent hemolysis was calculated as follows: (OD540peptide/OD540H2O)×100%.

Data set [2] in a line: Plasma stability, human plasma. It counts as in vitro ADME. The settings on record: 37° C., sampled up to 240 min; for half-life at 10 μM: read-out: Plasmastability human pl. T1/2. The protocol: (§1) The stability of the depsipeptides in human and mouse plasma was determined by applying the following method: 315 μL/deep well of freshly thawed human plasma (Basler Blutspende-dienst) and mouse plasma (Harlan Sera-Lab, UK), respectively, were spiked with 35 μL/well of compound in PBS (100 μM, triplicate) and incubated at 37° C. At t=0, 15, 30, 60, 120 and 240 min aliquots of 50 μL were transferred to filtration plate wells containing 150 μL/well of acetonitrile. Following shaking for 2 min the occurred suspensions were filtrated by vacuum and finally, 100 μL of each filtrate were transferred to a propylene microtiter plate, and analyzed by LC/MS as follows: Column: Waters, XBridge C18, mobile phases: (A) water+0.1% formic acid and (B) acetonitrile/water, 95/5 (v/v)+0.1% formic acid, gradient: 5%-100% (B) in 2 minutes, electrospray ionization, MRM detection (triple quadrupole). The peak areas were determined and triplicate values are averaged. The stability is expressed in percent of the initial value at t=0. (tx/t0×100). By using the TREND function of EXCEL (Microsoft Office 2003) T1/2 were determined.

Data set [3] is described as follows: Plasma stability, mouse plasma. It counts as in vitro ADME. The settings on record: 37° C., sampled up to 240 min; for half-life at 10 μM: read-out: Plasmastability mouse pl. T1/2. The protocol:
as §1

As to `C[C@@H]1NC(=O)[C@H](Cc2c[nH]cn2)NC(=O)[C@H](Cc2ccc(O)cc2)NC(=O)[C@@H]2CCCN2C(=O)[C@H]2CCCN2C(=O)[C@H](CCCCN)NC(=O)[C@H](CCC(N)=O)NC(=O)[C@H](Cc2ccc(O)cc2)NC(=O)[C@@H]2CSSC[C@H](NC1=O)C(=O)N[C@@H](CO)C(=O)O[C@@H](C)C(=O)N1CCC[C@@H]1C(=O)N[C@@H]([C@H](C)N)C(=O)N[C@@H](CCCNC(=N)N)C(=O)N[C@@H](Cc1ccc(O)cc1)C(=O)N2` [Example 1] (cyclo(YHACS[Lac][dP][Abu(3S-NH2)]RYCYQK[dP]P); disulfide 4-11), the IC50 on human CXCR4 was 0.8 ± 0.5 nM. Moreover, the GI50 at 48 h in the data set “in vitro” (African green monkey) came out at 12 µM; in “in vitro” (human) it was 2 µM. In addition, the “Hemolysis at 100 μM” value in data set [1] is reported as 0.2%. The values for the half-life at 10 μM in data set [2] and in data set [3] were 1.32 h and 1.22 h, respectively.

With `C[C@@H]1NC(=O)[C@H](Cc2c[nH]cn2)NC(=O)[C@H](Cc2ccc(O)cc2)NC(=O)[C@@H]2CCCN2C(=O)[C@H]2CCCN2C(=O)[C@H](CCCCN)NC(=O)[C@H](CCC(N)=O)NC(=O)[C@H](Cc2ccc(O)cc2)NC(=O)[C@@H]2CSSC[C@H](NC1=O)C(=O)N[C@@H](CO)C(=O)N[C@@H](C)C(=O)N1CCC[C@@H]1C(=O)O[C@@H](CCN)C(=O)N[C@@H](CCCNC(=N)N)C(=O)N[C@@H](Cc1ccc(O)cc1)C(=O)N2` [Example 2], on human CXCR4, the IC50 turned out to be 0.7 ± 0.7 nM. Moreover, the GI50 at 48 h in the data set “in vitro” (African green monkey) and in “in vitro” (human) was over 50 µM in each case. Further, the “Hemolysis at 100 μM” value in data set [1] is on record as 0.7%. Also, the Plasmastability human pl. T1/2 in data set [2] is over 4 h. The compound further registered a Plasmastability mouse pl. T1/2 in data set [3] of over 4 h.

With `C[C@@H]1NC(=O)[C@H](Cc2c[nH]cn2)NC(=O)[C@H](Cc2ccc(O)cc2)NC(=O)[C@@H]2CCCN2C(=O)[C@H]2CCCN2C(=O)[C@H](CCCCN)NC(=O)[C@H](CCC(N)=O)NC(=O)[C@H](Cc2ccc(O)cc2)OC(=O)[C@@H]2CSSC[C@H](NC1=O)C(=O)N[C@@H](CO)C(=O)N[C@@H](C)C(=O)N1CCC[C@@H]1C(=O)N[C@@H]([C@H](C)N)C(=O)N[C@@H](CCCNC(=N)N)C(=O)N[C@@H](Cc1ccc(O)cc1)C(=O)N2` [Example 3] (cyclo(YHACSA[dP][Abu(3S-NH2)]RYC[Hpla]QK[dP]P); disulfide 4-11), the IC50 on human CXCR4 is 2.7 ± 1.4 nM. The GI50 at 48 h in “in vitro” (African green monkey) and in the data set “in vitro” (human) was over 50 µM in each case. Also, the “Hemolysis at 100 μM” value in data set [1] was 0.4%. Besides, the half-life at 10 μM is 1.35 h in data set [2] and 2.27 h in data set [3].

As to `C[C@@H]1NC(=O)[C@H](Cc2c[nH]cn2)NC(=O)[C@H](Cc2ccc(O)cc2)NC(=O)[C@@H]2CCCN2C(=O)[C@H]2CCCN2C(=O)[C@H](CCCCN)NC(=O)[C@H](Cc2ccc(O)cc2)OC(=O)[C@H](Cc2ccc(O)cc2)NC(=O)[C@@H]2CSSC[C@H](NC1=O)C(=O)N[C@@H](CO)C(=O)N[C@@H](C)C(=O)N1CCC[C@@H]1C(=O)N[C@@H]([C@H](C)N)C(=O)N[C@@H](CCCNC(=N)N)C(=O)N[C@@H](Cc1ccc(O)cc1)C(=O)N2` [Example 4] (cyclo(YHACSA[dP][Abu(3S-NH2)]RYCY[Hpla]K[dP]P); disulfide 4-11), the half-inhibitory concentration (IC50) on human CXCR4 turned out to be 4.4 ± 1.6 nM. The GI50 at 48 h in the data set “in vitro” (African green monkey) and in “in vitro” (human) was over 50 µM in each case. Also, in data set [1], the “Hemolysis at 100 μM” value is 1.0%. The compound further showed a Plasmastability human pl. T1/2 in data set [2] of over 4 h. Further, the Plasmastability mouse pl. T1/2 in data set [3] is over 4 h.

Consider `C[C@@H]1NC(=O)[C@H](Cc2c[nH]cn2)NC(=O)[C@H](Cc2ccc(O)cc2)OC(=O)[C@@H]2CCCN2C(=O)[C@H]2CCCN2C(=O)[C@H](CCCCN)NC(=O)[C@H](CCC(N)=O)NC(=O)[C@H](Cc2ccc(O)cc2)NC(=O)[C@@H]2CSSC[C@H](NC1=O)C(=O)N[C@@H](CO)C(=O)N[C@@H](C)C(=O)N1CCC[C@@H]1C(=O)N[C@@H]([C@H](C)N)C(=O)N[C@@H](CCCNC(=N)N)C(=O)N[C@@H](Cc1ccc(O)cc1)C(=O)N2` [Example 5] (cyclo([Hpla]HACSA[dP][Abu(3S-NH2)]RYCYQK[dP]P); disulfide 4-11), for which, at human CXCR4, the IC50 turned out to be 3.3 ± 1.1 nM. Also, the GI50 at 48 h in “in vitro” (African green monkey) and in “in vitro” (human) was over 50 µM each time. Besides, the “Hemolysis at 100 μM” value in data set [1] came to 1.5%. In addition, the Plasmastability human pl. T1/2 in data set [2] was over 4 h. In data set [3], this compound showed a Plasmastability mouse pl. T1/2 of over 4 h.

On to `C[C@@H]1NC(=O)[C@H](CCN)OC(=O)[C@H](Cc2ccc(O)cc2)NC(=O)[C@@H]2CCCN2C(=O)[C@H]2CCCN2C(=O)[C@H](CCCCN)NC(=O)[C@H](CCC(N)=O)NC(=O)[C@H](Cc2ccc(O)cc2)NC(=O)[C@@H]2CSSC[C@H](NC1=O)C(=O)N[C@@H](CO)C(=O)N[C@@H](C)C(=O)N1CCC[C@@H]1C(=O)N[C@@H]([C@H](C)N)C(=O)N[C@@H](CCCNC(=N)N)C(=O)N[C@@H](Cc1ccc(O)cc1)C(=O)N2` [Example 6] (cyclo(Y[X1]ACSA[dP][Abu(3S-NH2)]RYCYQK[dP]P); disulfide 4-11), for which the IC50 on human CXCR4 amounted to 13.5 ± 5 nM. Further, the 50% growth inhibitory concentration (GI50) at 48 h in “in vitro” (African green monkey) and in the data set “in vitro” (human) was over 50 µM throughout. Also, the “Hemolysis at 100 μM” value in data set [1] worked out at 1.0%. The half-life at 10 μM in data set [2] stood at 0.07 h; in data set [3], 0.0717 h.

Take `C[C@@H]1NC(=O)[C@H](Cc2c[nH]cn2)NC(=O)[C@H](Cc2ccc(O)cc2)NC(=O)[C@@H]2CCCN2C(=O)[C@H]2CCCN2C(=O)[C@H](CCN)OC(=O)[C@H](CCC(N)=O)NC(=O)[C@H](Cc2ccc(O)cc2)NC(=O)[C@@H]2CSSC[C@H](NC1=O)C(=O)N[C@@H](CCCNC(=N)N)C(=O)N[C@@H](C)C(=O)N1CCC[C@@H]1C(=O)N[C@@H]([C@H](C)N)C(=O)N[C@@H](CCCNC(=N)N)C(=O)N[C@@H](Cc1ccc(O)cc1)C(=O)N2` [Example 8] (cyclo(YHACRA[dP][Abu(3S-NH2)]RYCYQ[X1][dP]P); disulfide 4-11): the IC50 on human CXCR4 is 82.4 ± 12.8 nM. Moreover, the GI50 at 48 h in the data set “in vitro” (African green monkey) and in the data set “in vitro” (human) was over 50 µM in each case. Further, in data set [1], the “Hemolysis at 100 μM” value worked out at 0.4%.

Source of the values: patent US8883720B2, “Template-fixed beta-hairpin peptidomimetics with CXCR4 antagonizing activity” (Polyphor AG, priority 2008, dated 2014).
